Assay results: patent US20100278940A1, “Calcium supplements” (HL DISTRIBUTION COMPANY, priority 2005, published 2010)

How the values were obtained:
[1] = tested on: osteoblastic hFOB 1.19 cells; experiment: MDA assay (H2O2-induced oxidative stress, lipid peroxidation); assay type: cell-based, human; conditions: 24 h
Description: (§1) These alterations in temperature were required because hFOB 1.19 cells were conditionally immortalized with a gene encoding a temperature-sensitive mutant (tsA58) of SV40 large T antigen.
(§2) AC was dissolved in HCl:H2O mixture at the ratio of 13:2. Calcium carbonate and calcium citrate were dissolved in distilled water. The stock solution of vitamin D3 was dissolved in ethyl alcohol as per the manufacturer's instructions and directly added in the medium to achieve its final concentration. […] The amount of calcium present in 0.5 mg of AC is 0.15 mg. […] Finally, the pH was maintained same in all the preparations.
After 24 h of treatment with compounds in the presence and absence of H2O2 (0.3 mM), the cells were washed with cold PBS, scraped, and homogenized in lysis buffer. […] of cell lysate was used for measuring the MDA levels by following the manufacturer's instructions. […] In this study, MDA standard was used to construct a standard curve.
(§3) Data were expressed as the mean±SEM of 3-6 independent experiments. Statistical comparisons of the results were made using one way analysis of variance (ANOVA). Significant differences (p≦0.05) between the means of control and test group were analyzed by the Neuman-Keuls multiple comparison test.

[2] = tested on: Human fetal osteoblast cells (hFOB 1.19); experiment: Alkaline phosphatase (ALP) activity in osteoblast cells; assay type: cell-based; conditions: 4 days; AC 0.5 mg/ml, 0.15 mg/ml calcium from carbonate or citrate; mean±SEM
Description: as §1, §2, §3

[3] = tested on: Human fetal osteoblast cells (hFOB 1.19); experiment: DNA synthesis assay ([3H] thymidine incorporation); assay type: cell-based; conditions: 4 days treatment, without vitamin D3; mean±SEM
Description: as §1, §2, §3

[4] = tested on: Human fetal osteoblast cells (hFOB 1.19); experiment: Mineralization/calcium deposition assay (Alizarin Red S); assay type: cell-based; conditions: 2 days treatment, without vitamin D3; mean±SEM
Description: as §1, §2, §3

[5] = tested on: Human fetal osteoblast cells (hFOB 1.19); experiment: Immunocytochemistry for proliferating cell nuclear antigen (PCNA) expression; assay type: cell-based; conditions: 4 days treatment, without vitamin D3
Description: Human fetal osteoblast cells (hFOB 1.19-ATCC number: CRL-11372) were seeded at a density of 10,000 cells cm^−2 in a mixture of Dulbecco's modified eagle medium (DMEM) and Ham F12 medium (1:1 ratio) supplemented with 10% fetal bovine serum (FBS) and 0.3 mg/ml […]. Osteoblast cells were cultured in a humidified atmosphere of 5% CO2 at 33.5° C. for cell attachment and proliferation and at 39.5° C. for other assays. These alterations in temperature were required because hFOB 1.19 cells were conditionally immortalized with a gene encoding a temperature-sensitive mutant (tsA58) of SV40 large T antigen.
AC was dissolved in HCl:H2O mixture at the ratio of 13:2. Calcium carbonate and calcium citrate were dissolved in distilled water. The stock solution of vitamin D3 was dissolved in ethyl alcohol as per the manufacturer's instructions and directly added in the medium to achieve its final concentration. […] The same dose was used for further experiments in the present study. The amount of calcium present in 0.5 mg of AC is 0.15 mg. […] Finally, the pH was maintained same in all the preparations.
To evaluate proliferative activity, immunohistochemistry for PCNA was performed after 4 days treatment of AC, calcium carbonate and calcium citrate. The experiment was done by following the instructions of PCNA staining kit (Invitrogen). […]

[6] = in presence of 0.3 mM H2O2, mean±SEM

Row | MDA levels ([1]; 0.3 mM H2O2 alone, control 0.6768±0.084) [µM] | SMILES | ALP activity [2] [nmol/mg protein] | [3H] thymidine incorporation counts (DNA synthesis) [3] [cpm] | calcium deposition (mineralization) [4] [OD at 561 nm] | MDA levels [1, 6] [µM] | expression of PCNA [5]
1 | 1.992 ± 0.116 | OO [Example H2O2, H2O2] | – | – | – | – | –
2 | – | O=C([O-])[O-].[Ca+2] [calcium carbonate, Calcium carbonate] | 372.2±15.7 | 62.8±11.6 | 0.1810±0.0115 | 1.263 ± 0.062 | –
3 | – | O=C([O-])CC(O)(CC(=O)[O-])C(=O)[O-].O=C([O-])CC(O)(CC(=O)[O-])C(=O)[O-].[Ca+2].[Ca+2].[Ca+2] [calcium citrate] | 302.1±47.8 | 45±9.9 | 0.1267±0.0054 | 1.289 ± 0.109 | considerably higher than the control and calcium carbonate-treated cells
